{"source": "paper PMC5944417", "about": "(Heliyon, 2018)", "origin": "cited, not measured here", "settings_in_all_cases": "ref Maes et al., 2007", "key": {"porcine kallikrein": {"system": "porcine kallikrein"}, "plasmin": {"molecular_target": "plasmin"}, "endoproteinase Lys-C": {"system": "endoproteinase Lys-C"}, "papain": {"system": "papain"}, "cathepsin B": {"molecular_target": "cathepsin B"}, "trypsin": {"molecular_target": "trypsin"}}}
{"smiles": "CC(=O)N[C@@H](CC(C)C)C(=O)N[C@@H](CC(C)C)C(=O)N[C@H](C=O)CCCNC(=N)N", "note": "[Leupeptin, N-acetyl-L-leucyl-L-leucyl-L-argininal]", "values": [{"measurement": "inhibition", "setting": "porcine kallikrein", "result": "inhibited"}, {"measurement": "Ki", "setting": "plasmin", "result": 3.5, "unit": "nM"}, {"measurement": "inhibition", "setting": "endoproteinase Lys-C", "result": "inhibited"}, {"measurement": "inhibition", "setting": "papain", "result": "inhibited"}, {"measurement": "Ki", "setting": "cathepsin B", "result": 4.1, "unit": "nM"}, {"measurement": "Ki", "setting": "trypsin", "result": 3.4, "unit": "nM"}]}
